Source: PubChem BioAssay AID248 (DTP/NCI, 2004)
Where “and” joins values, the source holds several entries; their conditions need not be identical. Identical values can stand only once. Toxic doses and inconclusive results are not listed. Cut-off read from the data, not from the text of the source: active = T/C of 150% or more; inactive = T/C below 125%.

Test system: L1210 leukemia ip in BDF1 mice, survival T/C
Test: NCI In Vivo Anticancer Drug Screen. Data for tumor model L1210 Leukemia (intraperitoneal) in B6D2F1 (BDF1) mice
Details: endpoint: mean survival time, higher = longer survival
Procedure, shortened: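 Each compound was tested against a transplantable tumor grown in mice. The endpoint was survival, with treated animals benchmarked against vehicle controls as a simple ratio.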

[1] = dose: 75.0 mg/kg/injection, schedule: Q04DX003 (ip), vehicle: Klucel (hydroxypropylcellulose) (HPC)
[2] = dose: 150.0 mg/kg/injection, schedule: Q04DX003 (ip), vehicle: Klucel (hydroxypropylcellulose) (HPC)
[3] = dose: 300.0 mg/kg/injection, schedule: Q04DX003 (ip), vehicle: Klucel (hydroxypropylcellulose) (HPC)
[4] = dose: 100.0 mg/kg/injection, schedule: Q04DX003 (ip), vehicle: Klucel (hydroxypropylcellulose) (HPC)
[5] = dose: 100.0 mg/kg/injection, schedule: Q01DX009 (ip), vehicle: saline with Tween-80
[6] = dose: 100.0 mg/kg/injection, schedule: Q04DX003 (ip), vehicle: saline with Tween-80
[7] = dose: 200.0 mg/kg/injection, schedule: Q01DX009 (ip), vehicle: saline with Tween-80
[8] = dose: 200.0 mg/kg/injection, schedule: Q04DX003 (ip), vehicle: saline with Tween-80
[9] = dose: 400.0 mg/kg/injection, schedule: Q01DX009 (ip), vehicle: saline with Tween-80
[10] = dose: 400.0 mg/kg/injection, schedule: Q04DX003 (ip), vehicle: saline with Tween-80
[11] = dose: 100.0 mg/kg/injection, schedule: Q01DX009 (ip), vehicle: saline
[12] = dose: 100.0 mg/kg/injection, schedule: Q04DX003 (ip), vehicle: saline
[13] = dose: 200.0 mg/kg/injection, schedule: Q01DX009 (ip), vehicle: saline
[14] = dose: 100.0 mg/kg/injection, schedule: Q04DX002 (ip), vehicle: Klucel (hydroxypropylcellulose) (HPC)
[15] = dose: 200.0 mg/kg/injection, schedule: Q04DX002 (ip), vehicle: Klucel (hydroxypropylcellulose) (HPC)
[16] = dose: 400.0 mg/kg/injection, schedule: Q04DX002 (ip), vehicle: Klucel (hydroxypropylcellulose) (HPC)
[17] = dose: 100.0 mg/kg/injection, schedule: Q01DX001 (ip), vehicle: carboxymethylcellulose (CMC)
[18] = dose: 200.0 mg/kg/injection, schedule: Q01DX001 (ip), vehicle: carboxymethylcellulose (CMC)
[19] = dose: 400.0 mg/kg/injection, schedule: Q01DX001 (ip), vehicle: carboxymethylcellulose (CMC)
[20] = dose: 100.0 mg/kg/injection, schedule: Q01DX001 (ip), vehicle: Klucel (hydroxypropylcellulose) (HPC)
[21] = dose: 200.0 mg/kg/injection, schedule: Q01DX001 (ip), vehicle: Klucel (hydroxypropylcellulose) (HPC)
[22] = dose: 400.0 mg/kg/injection, schedule: Q01DX001 (ip), vehicle: Klucel (hydroxypropylcellulose) (HPC)
[23] = dose: 75.0 mg/kg/injection, schedule: Q01DX001 (ip), vehicle: carboxymethylcellulose (CMC)
[24] = dose: 150.0 mg/kg/injection, schedule: Q01DX001 (ip), vehicle: carboxymethylcellulose (CMC)
[25] = dose: 300.0 mg/kg/injection, schedule: Q01DX001 (ip), vehicle: carboxymethylcellulose (CMC)

Measured: T/C

O=C(O)C(CSC(c1ccccc1)c1ccccc1)N1C(=O)c2ccccc2C1=O (stereo not given)
inactive: dose: 75.0 mg/kg/injection, schedule: Q01DX009 (ip), vehicle: Klucel (hydroxypropylcellulose) (HPC) 102 % of control | [1] 97 % of control | dose: 150.0 mg/kg/injection, schedule: Q01DX009 (ip), vehicle: Klucel (hydroxypropylcellulose) (HPC) 98 % of control | [2] 109 % of control | dose: 300.0 mg/kg/injection, schedule: Q01DX009 (ip), vehicle: Klucel (hydroxypropylcellulose) (HPC) 104 % of control | [3] 94 % of control

NC(Cc1nn[nH]n1)C(=O)O (stereo not given)
inactive: dose: 100.0 mg/kg/injection, schedule: Q01DX009 (ip), vehicle: water 102 % of control | dose: 100.0 mg/kg/injection, schedule: Q04DX003 (ip), vehicle: water 96 % of control | dose: 200.0 mg/kg/injection, schedule: Q01DX009 (ip), vehicle: water 102 % of control | dose: 200.0 mg/kg/injection, schedule: Q04DX003 (ip), vehicle: water 94 % of control | dose: 400.0 mg/kg/injection, schedule: Q01DX009 (ip), vehicle: water 98 % of control | dose: 400.0 mg/kg/injection, schedule: Q04DX003 (ip), vehicle: water 88 % of control

O=[N+]([O-])c1cc(Br)c(N=Nc2ccc(O)cc2)c(Br)c1
inactive: dose: 50.0 mg/kg/injection, schedule: Q01DX001 (ip), vehicle: saline 92 % of control | dose: 100.0 mg/kg/injection, schedule: Q01DX001 (ip), vehicle: saline 114 % of control | dose: 200.0 mg/kg/injection, schedule: Q01DX001 (ip), vehicle: saline 97 % of control | dose: 400.0 mg/kg/injection, schedule: Q01DX001 (ip), vehicle: saline 92 % of control

CS(=O)(=O)OCCN=C(N)N[N+](=O)[O-]
inactive: dose: 20.0 mg/kg/injection, schedule: Q04DX003 (ip), vehicle: Klucel (hydroxypropylcellulose) (HPC) 95 % of control | dose: 40.0 mg/kg/injection, schedule: Q04DX003 (ip), vehicle: Klucel (hydroxypropylcellulose) (HPC) 95 % of control | dose: 80.0 mg/kg/injection, schedule: Q04DX003 (ip), vehicle: Klucel (hydroxypropylcellulose) (HPC) 97 % of control | [4] 105 % of control

CS(=O)(=O)OCC(=O)COS(C)(=O)=O
inactive: dose: 1.25 mg/kg/injection, schedule: Q01DX009 (ip), vehicle: saline 95 % of control | dose: 2.5 mg/kg/injection, schedule: Q01DX009 (ip), vehicle: saline 93 % of control | dose: 10.0 mg/kg/injection, schedule: Q01DX009 (ip), vehicle: saline 116 % of control

CSCSCC(NS(=O)(=O)c1ccc(C)cc1)C(=O)O (stereo not given)
inactive: [5] 109 % of control | [6] 107 % of control | [7] 109 % of control | [8] 96 % of control | [9] 104 % of control | [10] 105 % of control

N#CCCC(CC#N)S(=O)(=O)O (stereo not given)
inactive: [11] 105 % of control | [12] 100 % of control | [13] 103 % of control | dose: 200.0 mg/kg/injection, schedule: Q04DX003 (ip), vehicle: saline 108 % of control | dose: 400.0 mg/kg/injection, schedule: Q01DX009 (ip), vehicle: saline 102 % of control | dose: 400.0 mg/kg/injection, schedule: Q04DX003 (ip), vehicle: saline 106 % of control

CCC/C=C/CC1CCCCC1
inactive: dose: 50.0 mg/kg/injection, schedule: Q01DX009 (ip), vehicle: saline 97 % of control | [11] 97 % of control | [13] 102 % of control

CC(=O)c1cccc(F)n1
inactive: [14] 93 % of control | [15] 110 % of control | [16] 100 % of control

CCOCc1nc(N)nc(N)c1-c1ccc(Cl)c(Cl)c1
inactive: [17] 97 % of control | [18] 89 % of control | [19] 108 % of control

O=C(NCCBr)c1ccc(CCl)cc1
inactive: [1] 102 % of control | [20] 104 % of control | [2] 96 % of control | [21] 95 % of control | [3] 97 % of control | [22] 103 % of control

O=c1[nH]nc2ccccn12
inactive: [20] 96 % of control | [4] 101 % of control | [21] 102 % of control | dose: 200.0 mg/kg/injection, schedule: Q04DX003 (ip), vehicle: Klucel (hydroxypropylcellulose) (HPC) 101 % of control | [22] 96 % of control | dose: 400.0 mg/kg/injection, schedule: Q04DX003 (ip), vehicle: Klucel (hydroxypropylcellulose) (HPC) 95 % of control

Cc1c2c(n(C)c1C(=O)N1CCCCC1)CCCC2=O
inactive: [23] 103 % of control | [24] 101 % of control | [25] 98 % of control

OCC1(CO)CC=CCC1
inactive: dose: 25.0 mg/kg/injection, schedule: Q04DX003 (ip), vehicle: saline 95 % of control | dose: 50.0 mg/kg/injection, schedule: Q04DX003 (ip), vehicle: saline 105 % of control | [17] 103 % of control | [12] 94 % of control and 89 % of control | [18] 95 % of control | [19] 103 % of control

CCOC(=O)C(=CNc1ccc(OCCCOc2ccccc2)cc1)C(=O)OCC
inactive: dose: 100.0 mg/kg/injection, schedule: Q01DX001 (ip), vehicle: gum acacia 98 % of control | dose: 200.0 mg/kg/injection, schedule: Q01DX001 (ip), vehicle: gum acacia 90 % of control | dose: 400.0 mg/kg/injection, schedule: Q01DX001 (ip), vehicle: gum acacia 102 % of control

C/C=C\c1ccc(OC(=O)Nc2cccc(Cl)c2)c(OC)c1
inactive: [14] 101 % of control | [15] 95 % of control | [16] 92 % of control

C[N+]1(CCCCCNC2=CC(=O)C(NCCCCC[N+]3(C)CCCCC3)=CC2=O)CCCCC1
inactive: dose: 0.1 mg/kg/injection, schedule: Q01DX001 (ip), vehicle: saline 96 % of control

COC(=O)Nc1cccc(OC(=O)NCC(C)C)c1
inactive: [5] 87 % of control | [7] 91 % of control | [9] 96 % of control

O=C(OCC1OC(Cl)C(OC(=O)c2ccccc2)C1OC(=O)c1ccccc1)c1ccccc1 (stereo not given)
inactive: dose: 100.0 mg/kg/injection, schedule: Q01DX001 (sc), vehicle: olive oil, sesame oil, peanut oil 100 % of control | dose: 200.0 mg/kg/injection, schedule: Q01DX001 (sc), vehicle: olive oil, sesame oil, peanut oil 100 % of control | dose: 400.0 mg/kg/injection, schedule: Q01DX001 (sc), vehicle: olive oil, sesame oil, peanut oil 96 % of control

CC(=O)Nc1c(Cl)c(Cl)c2[nH]c(=O)c3cc(Cl)ccc3c2c1Cl
inactive: [23] 87 % of control | [24] 95 % of control | [25] 88 % of control

Cc1cc(C)c(C(=O)OCCN(C)C)c(C)c1
inactive: dose: 75.0 mg/kg/injection, schedule: Q01DX001 (ip), vehicle: saline 110 % of control | dose: 150.0 mg/kg/injection, schedule: Q01DX001 (ip), vehicle: saline 98 % of control

O=C(CNC(=O)c1ccccc1)c1ccccc1
inactive: [14] 105 % of control | [15] 102 % of control | [16] 108 % of control

CC(=O)OCC(OC(C)=O)C(OC(C)=O)C(COC(C)=O)OC(C)=O (stereo not given)
inactive: dose: 25.6 mg/kg/injection, schedule: Q04DX002 (ip), vehicle: saline with Tween-80 108 % of control | dose: 64.0 mg/kg/injection, schedule: Q04DX002 (ip), vehicle: saline with Tween-80 104 % of control | dose: 160.0 mg/kg/injection, schedule: Q04DX002 (ip), vehicle: saline with Tween-80 93 % of control | dose: 400.0 mg/kg/injection, schedule: Q04DX002 (ip), vehicle: saline with Tween-80 93 % of control

CC1CC(C(C)(C)C)CCC1S (stereo not given)
inactive: [11] 95 % of control | [13] 88 % of control

COc1ccc(OC)c(NC(=O)Oc2ccc(Cl)c(C)c2)c1
inactive: [6] 90 % of control | [8] 87 % of control | [10] 93 % of control
